The record followed here is US9796711B2, “Substituted pyrazolo[3,4-b]pyridin-6-carboxylic acids and method of use” (AbbVie S.àr.l., priority 2015, dated 2017).

For assay [1], the target named is T1, ΔF508-CFTR (Homo sapiens, UniProt P13569, DEL508-508).
T1 construct: host or cells: CFBE41o-, doxycycline-inducible
The experiment in a line: CFTR cell surface levels using HRP-tagged ΔF508-CFTR expressing CFBE cells, in the presence of a co-corrector. It counts as cell-based. Particulars: HRP-tagged ΔF508-CFTR expressing CFBE cells, in the presence of 3 μM co-corrector; for EC50: read-out: EC50. In short, it runs like this: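 Cells were seeded with 0.5 μg/mL doxycycline and held 68 h at 37 °C. Test compounds plus 3 μM co-corrector (final 0.1% DMSO) were then added for 20 h at 33 °C. Washed cells received HRP substrate, and luminescence was normalized between DMSO and 3 μM co-corrector controls.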

For assay [2], the target named is T1, ΔF508-CFTR. As to the kind of experiment: CFTR cell surface levels using HRP-tagged ΔF508-CFTR expressing CFBE cells, intrinsic corrector capacity. Conditions: for EC50: read-out: EC50. It is filed as cell-based. In short, it runs like this: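 Here the cells express ΔF508-CFTR with horseradish peroxidase inserted in extracellular loop 4, so only rescued channel at the surface gives luminescent signal. Compounds act on their own, 20 h at the reduced temperature of 33 °C; values are percent activity relative to DMSO and a 3 μM corrector.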

The mark [3] stands for this setting: HRP-tagged ΔF508-CFTR expressing CFBE cells, intrinsic corrector capacity (no co-corrector), 33° C., 20 hours.
[4] abbreviates: HRP-tagged ΔF508-CFTR CFBE41o- cells, compounds alone (intrinsic corrector capacity), 20 hours at 33° C., positive control 3 μM corrector.
Setting [5] is: HRP-tagged ΔF508-CFTR CFBE41o- cells, compounds alone (intrinsic corrector capacity), 20 hours at 33° C.

T1 sequence (P13569 with tags, fused parts or gaps DEL508-508): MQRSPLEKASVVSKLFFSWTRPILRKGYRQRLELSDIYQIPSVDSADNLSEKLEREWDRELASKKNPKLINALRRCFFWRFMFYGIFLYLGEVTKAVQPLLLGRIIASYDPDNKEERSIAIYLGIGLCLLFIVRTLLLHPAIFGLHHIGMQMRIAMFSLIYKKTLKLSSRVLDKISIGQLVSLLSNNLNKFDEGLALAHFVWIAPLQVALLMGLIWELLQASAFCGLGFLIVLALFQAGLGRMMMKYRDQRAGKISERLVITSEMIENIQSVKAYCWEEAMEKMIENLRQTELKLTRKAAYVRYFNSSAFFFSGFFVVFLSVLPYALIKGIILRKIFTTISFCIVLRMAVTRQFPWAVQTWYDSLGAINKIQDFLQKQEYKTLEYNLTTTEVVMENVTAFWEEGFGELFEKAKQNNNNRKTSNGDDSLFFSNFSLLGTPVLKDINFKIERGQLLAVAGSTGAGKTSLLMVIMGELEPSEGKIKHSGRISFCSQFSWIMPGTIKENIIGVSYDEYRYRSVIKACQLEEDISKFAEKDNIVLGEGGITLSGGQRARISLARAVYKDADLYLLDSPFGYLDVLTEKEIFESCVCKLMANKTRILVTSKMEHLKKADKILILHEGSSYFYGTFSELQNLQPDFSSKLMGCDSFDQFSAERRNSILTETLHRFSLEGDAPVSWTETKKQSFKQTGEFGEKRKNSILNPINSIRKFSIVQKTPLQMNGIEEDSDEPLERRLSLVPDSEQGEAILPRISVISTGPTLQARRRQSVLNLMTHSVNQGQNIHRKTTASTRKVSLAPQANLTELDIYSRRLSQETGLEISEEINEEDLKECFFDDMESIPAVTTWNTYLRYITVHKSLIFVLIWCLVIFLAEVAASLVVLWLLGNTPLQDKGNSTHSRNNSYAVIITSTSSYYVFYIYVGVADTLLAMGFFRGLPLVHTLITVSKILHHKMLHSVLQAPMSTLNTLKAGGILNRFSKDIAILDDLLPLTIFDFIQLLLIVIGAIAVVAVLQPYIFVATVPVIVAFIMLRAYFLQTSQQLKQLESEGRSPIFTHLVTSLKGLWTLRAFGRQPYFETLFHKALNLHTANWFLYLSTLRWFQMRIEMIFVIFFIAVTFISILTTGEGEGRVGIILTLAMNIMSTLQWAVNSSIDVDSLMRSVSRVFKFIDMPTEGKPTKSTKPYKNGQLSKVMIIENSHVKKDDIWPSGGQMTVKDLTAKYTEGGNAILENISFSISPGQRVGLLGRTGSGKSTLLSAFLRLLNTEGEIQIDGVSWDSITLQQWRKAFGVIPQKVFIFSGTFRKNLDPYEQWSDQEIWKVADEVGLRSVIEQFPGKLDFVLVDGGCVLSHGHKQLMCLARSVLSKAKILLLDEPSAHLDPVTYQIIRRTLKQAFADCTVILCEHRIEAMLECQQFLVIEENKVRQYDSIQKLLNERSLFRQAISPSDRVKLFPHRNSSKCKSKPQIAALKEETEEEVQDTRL

`N#CC1CCN(c2ccc(-c3cc(C(=O)O)nc4c3c([C@H]3C[C@H](F)C3)nn4-c3ccccc3)cn2)CC1` [compound 433, 4-[6-(4-cyanopiperidin-1-yl)pyridin-3-yl]-3-(trans-3-fluorocyclobutyl)-1-phenyl-1H-pyrazolo[3,4-b]pyridine-6-carboxylic acid]: on ΔF508-CFTR [1], the “% Activation” value is 369.1% and the EC50 is 367 nM. Also, on ΔF508-CFTR [2] (setting [3]), the “% Activation” value was determined as 185.45% and the 50% effective concentration (EC50) turned out to be 629 nM.
Turning to `Cc1nn(C2CCCCC2)c2nc(C(=O)O)cc(-c3ccc(N4CCOCC4)nc3)c12` [compound 74, 1-cyclohexyl-3-methyl-4-[6-(morpholin-4-yl)pyridin-3-yl]-1H-pyrazolo[3,4-b]pyridine-6-carboxylic acid], the entries for the “% Activation” value at ΔF508-CFTR [1] and at ΔF508-CFTR [2] (setting [4]) were 257.2% and 116.7%, respectively. Besides, the values for the EC50 at ΔF508-CFTR [1] and at ΔF508-CFTR [2] (setting [5]) were 1480 nM and 2560 nM, respectively.
Take `O=C(O)c1cc(OCC2CCOCC2)c2c(C3CCC3)nn(-c3ccccc3)c2n1` [compound 417, 3-cyclobutyl-4-[(oxan-4-yl)methoxy]-1-phenyl-1H-pyrazolo[3,4-b]pyridine-6-carboxylic acid]: on ΔF508-CFTR [1], the “% Activation” value stood at 322% and the EC50 amounted to 318 nM. For the same compound, on ΔF508-CFTR [2] (setting [3]), the “% Activation” value stood at 134.8% and the EC50 was 546 nM.
Turning to `CC(C)c1nn(-c2cccc(OC(F)(F)F)c2)c2nc(C(=O)O)cc(-c3ccc(N4CCOCC4)cc3)c12` [compound 269, 4-[4-(morpholin-4-yl)phenyl]-3-(propan-2-yl)-1-[3-(trifluoromethoxy)phenyl]-1H-pyrazolo[3,4-b]pyridine-6-carboxylic acid], the “% Activation” value at ΔF508-CFTR [1] is 452.33%; at ΔF508-CFTR [2] (setting [4]), 264.3%. The results for the EC50 on ΔF508-CFTR [1] and at ΔF508-CFTR [2] (setting [5]) were 391 nM and 581 nM, respectively.
The matching figures for `CC(C)c1nn(C2CCCCC2)c2nc(C(=O)O)cc(N3CCCCC3)c12` [compound 265, 1-cyclohexyl-4-(piperidin-1-yl)-3-(propan-2-yl)-1H-pyrazolo[3,4-b]pyridine-6-carboxylic acid]: 397.8%, 132.05%, 1390 nM and 1240 nM.
In the case of `O=C(O)c1cc(N2CCC(N3CCCCC3)CC2)c2c(C3CCC3)nn(-c3ccc(F)cc3)c2n1` [compound 693, 4-([1,4′-bipiperidin]-1′-yl)-3-cyclobutyl-1-(4-fluorophenyl)-1H-pyrazolo[3,4-b]pyridine-6-carboxylic acid], the “% Activation” value at ΔF508-CFTR [1] is listed as 392.45%; at ΔF508-CFTR [2] (setting [3]), 185.9%. Also, the EC50 on ΔF508-CFTR [1] was determined as 325 nM; at ΔF508-CFTR [2] (setting [3]), 1270 nM.
For `CC(C)c1nn(-c2cc(F)cc(F)c2)c2nc(C(=O)O)cc(-c3ccc(N(C)C4CCOCC4)nc3)c12` [compound 246, 1-(3,5-difluorophenyl)-4-{6-[methyl(oxan-4-yl)amino]pyridin-3-yl}-3-(propan-2-yl)-1H-pyrazolo[3,4-b]pyridine-6-carboxylic acid], the “% Activation” value on ΔF508-CFTR [1] was found to be 457.57%; on ΔF508-CFTR [2] (setting [4]), 212.75%. Further, the EC50 at ΔF508-CFTR [1] worked out at 467 nM; at ΔF508-CFTR [2] (setting [5]), 464 nM.
As for `COc1cc(-n2nc(C3CCC3)c3c(N4CCC(N5CCOCC5)CC4)cc(C(=O)O)nc32)ccc1F` [compound 908, 3-cyclobutyl-1-(4-fluoro-3-methoxyphenyl)-4-[4-(morpholin-4-yl)piperidin-1-yl]-1H-pyrazolo[3,4-b]pyridine-6-carboxylic acid], at ΔF508-CFTR [1], the “% Activation” value was 486.75% and the EC50 was 171 nM. On ΔF508-CFTR [2] (setting [3]), the “% Activation” value is listed as 220.2% and the concentration for a half-maximal effect (EC50) amounted to 256 nM.
On the same counts, the results for `COCCC1(CCOc2cc(C(=O)O)nc3c2c(C2CCC2)nn3-c2ccccc2)CC1` [compound 484, 3-cyclobutyl-4-{2-[1-(2-methoxyethyl)cyclopropyl]ethoxyl}-1-phenyl-1H-pyrazolo[3,4-b]pyridine-6-carboxylic acid] are 226.6%, 369 nM, 113.5% and 1110 nM.
The matching figures for `N#CC1CCN(c2cc(C(=O)O)nc3c2c(C2CCC2)nn3-c2ccccc2)CC1` [compound 410, 4-(4-cyanopiperidin-1-yl)-3-cyclobutyl-1-phenyl-1H-pyrazolo[3,4-b]pyridine-6-carboxylic acid]: 317.5%, 228 nM, 155.63% and 557 nM.
The matching figures for `CC1OCC(Oc2cc(C(=O)O)nc3c2c(C2CCC2)nn3-c2ccccc2)CO1` (stereo not drawn) [compound 493, 3-cyclobutyl-4-[(2-methyl-1,3-dioxan-5-yl)oxy]-1-phenyl-1H-pyrazolo[3,4-b]pyridine-6-carboxylic acid]: 286.5%, 396 nM, 129.05% and 645 nM.
With `Cc1cccc(-n2nc(C(C)C)c3c(N4CCCCC4)cc(C(=O)O)nc32)c1` [compound 162, 1-(3-methylphenyl)-4-(piperidin-1-yl)-3-(propan-2-yl)-1H-pyrazolo[3,4-b]pyridine-6-carboxylic acid], the results for the “% Activation” value on ΔF508-CFTR [1] and on ΔF508-CFTR [2] (setting [4]) were 399.73% and 147.97%, respectively. Moreover, the EC50 at ΔF508-CFTR [1] worked out at 808 nM; at ΔF508-CFTR [2] (setting [5]), 992 nM.
`COCCC1CCN(c2cc(C(=O)O)nc3c2c(C2CCC2)nn3-c2ccccc2)CC1` [compound 403, 3-cyclobutyl-4-[4-(2-methoxyethyl)piperidin-1-yl]-1-phenyl-1H-pyrazolo[3,4-b]pyridine-6-carboxylic acid]: at ΔF508-CFTR [1], the “% Activation” value is given as 507.25% and the EC50 was found to be 311 nM. In addition, on ΔF508-CFTR [2] (setting [3]), the “% Activation” value came to 293.4% and the EC50 was found to be 408 nM.
The matching figures for `CC(=O)N1CC[C@H]2CN(c3cc(C(=O)O)nc4c3c(C3CCC3)nn4-c3ccccc3)CC[C@H]21` (single isomer, unassigned) [compound 588]: 469.3%, 2420 nM, 232.6% and 3330 nM.
Regarding `Cc1nn(-c2ccccc2)c2nc(C(=O)O)cc(N3CC[C@@H](F)C3)c12` [compound 298, 4-[(3R)-3-fluoropyrrolidin-1-yl]-3-methyl-1-phenyl-1H-pyrazolo[3,4-b]pyridine-6-carboxylic acid], the “% Activation” value worked out at 206.45% at ΔF508-CFTR [1] and 52.345% on ΔF508-CFTR [2] (setting [4]). The EC50 on ΔF508-CFTR [1] was 2440 nM; on ΔF508-CFTR [2] (setting [5]), 2510 nM.
With `O=C(O)c1cc(OCCC2CCOCC2)c2c(C3CCC3)nn(-c3ccccc3)c2n1` [compound 414, 3-cyclobutyl-4-[2-(oxan-4-yl)ethoxy]-1-phenyl-1H-pyrazolo[3,4-b]pyridine-6-carboxylic acid], at ΔF508-CFTR [1], the “% Activation” value was 295.15% and the EC50 turned out to be 373 nM. Also, at ΔF508-CFTR [2] (setting [3]), the “% Activation” value is 120.3% and the EC50 amounted to 692 nM.
In the case of `Cc1cccc(-n2nc(C(C)C)c3c(N4CCC5(CCCCC5)CC4)cc(C(=O)O)nc32)c1` [compound 360, 4-(3-azaspiro[5.5]undecan-3-yl)-1-(3-methylphenyl)-3-(propan-2-yl)-1H-pyrazolo[3,4-b]pyridine-6-carboxylic acid], the figures for the “% Activation” value on ΔF508-CFTR [1] and on ΔF508-CFTR [2] (setting [4]) were 293% and 96.335%, respectively. Besides, the EC50 on ΔF508-CFTR [1] was determined as 1030 nM; at ΔF508-CFTR [2] (setting [5]), 1170 nM.
Turning to `CC(C)CN1C[C@@H]2CN(c3cc(C(=O)O)nc4c3c(C3CCC3)nn4-c3ccccc3)C[C@@H]2C1` [compound 692, 3-cyclobutyl-4-[(3aR,6aS)-5-(2-methylpropyl)hexahydropyrrolo[3,4-c]pyrrol-2(1H)-yl]-1-phenyl-1H-pyrazolo[3,4-b]pyridine-6-carboxylic acid], at ΔF508-CFTR [1], the “% Activation” value turned out to be 381.4% and the EC50 was determined as 931 nM. For the same compound, at ΔF508-CFTR [2] (setting [3]), the “% Activation” value was found to be 208.1% and the EC50 stood at 1670 nM.
Regarding `COCCOC1CCN(c2cc(C(=O)O)nc3c2c(C)nn3-c2ccccc2)CC1` [compound 318, 4-[4-(2-methoxyethoxy)piperidin-1-yl]-3-methyl-1-phenyl-1H-pyrazolo[3,4-b]pyridine-6-carboxylic acid], the “% Activation” value is given as 323.72% at ΔF508-CFTR [1] and 134.15% at ΔF508-CFTR [2] (setting [4]). Further, the EC50 amounted to 1860 nM at ΔF508-CFTR [1] and 2630 nM on ΔF508-CFTR [2] (setting [5]).
`O=C(O)c1cc(CN2CCC(N3CCOCC3)CC2)c2c(C3CCC3)nn(-c3ccc(F)cc3)c2n1` [compound 893, 3-Cyclobutyl-1-(4-fluoro-phenyl)-4-(4-morpholin-4-yl-piperidin-1-ylmethyl)-1H-pyrazolo[3,4-b]pyridine-6-carboxylic acid]: the “% Activation” value is on record as 236.6% on ΔF508-CFTR [1] and 55.75% on ΔF508-CFTR [2] (setting [3]). For the same compound, the EC50 amounted to 3330 nM at ΔF508-CFTR [1] and 3140 nM on ΔF508-CFTR [2] (setting [3]).
As for `COC1CCN(c2cc(C(=O)O)nc3c2c(C(C)C)nn3-c2ccc(F)cc2)CC1` [compound 393, 1-(4-fluorophenyl)-4-(4-methoxypiperidin-1-yl)-3-(propan-2-yl)-1H-pyrazolo[3,4-b]pyridine-6-carboxylic acid], the entries for the “% Activation” value at ΔF508-CFTR [1] and at ΔF508-CFTR [2] (setting [4]) were 454.3% and 258.8%, respectively. In addition, the EC50 is 314 nM on ΔF508-CFTR [1] and 558 nM at ΔF508-CFTR [2] (setting [5]).
